This assay has as its target human GPR43 (Homo sapiens (Human), UniProt O15552). Nature of the assay: Ca-Flux functional assay: determination of agonist/positive allosteric modulator (PAM) activity. The assay is classed as cell-based. Particulars: CHO-K1 Gα16 cells stably expressing human GPR43; compound added with EC20 sodium acetate; intracellular Ca2+ by FLIPR; does not distinguish agonist from PAM. On the procedure: Ca-Flux Functional Assay: Determination of Agonist/Positive Allosteric Modulator (PAM) Activity
GPR43 agonist/PAM activity was determined by measuring changes in intracellular calcium levels using a Ca^2+ sensitive fluorescent dye. The changes in fluorescent signal were monitored by FLIPR (manufactured by Molecular Devices). GPR43 mediated increases in intracellular Ca^2+ concentration were readily detected upon activation with sodium acetate. Prior to the assay (24 hours), CHO-K1 Gα16 cells stably expressing human GPR43 were-seeded in cell culture medium in black, clear-bottom 384-well plates (Corning Inc) and grown overnight at 37° C., 5% CO2. On the day of the assay, cell culture media was removed and cells were loaded with Calcium 5 Dye (Molecular Devices) diluted in HBSS containing 25 mM HEPES, 2.5 mM Probenecid, 0.1% BSA for 1 hour at 37° C., 5% CO2. 10 point half log concentration response curves of sodium acetate from 10 mM were conducted prior to the testing of compounds to calculate the sodium acetate concentration that produces 20% of the maximal response (EC20). Test compounds (at 10 point half log concentration response curves from 10 μM) were added in the presence of sodium acetate to achieve a final concentration that produces approximately 20% maximal response as calculated from the previous experiment. The changes in fluorescent signal were monitored by FLIPR upon addition of the compound/EC20 sodium acetate mix. The EC50 values were determined from ten point concentration response curves. Curves were generated using the average of two wells for each data point.
The above assay detects both GPR43 receptor agonists and positive allosteric modulators of the GPR43 receptor, without distinguishing between the two. Activity in either regard is useful in the treatment of conditions associated with GPR43 receptor activity.

Our source for the EC50 values is patent US10059713B2 (Takeda Pharmaceutical Company Limited, priority 2014, dated 2018).

human GPR43, sequence (O15552 whole entry): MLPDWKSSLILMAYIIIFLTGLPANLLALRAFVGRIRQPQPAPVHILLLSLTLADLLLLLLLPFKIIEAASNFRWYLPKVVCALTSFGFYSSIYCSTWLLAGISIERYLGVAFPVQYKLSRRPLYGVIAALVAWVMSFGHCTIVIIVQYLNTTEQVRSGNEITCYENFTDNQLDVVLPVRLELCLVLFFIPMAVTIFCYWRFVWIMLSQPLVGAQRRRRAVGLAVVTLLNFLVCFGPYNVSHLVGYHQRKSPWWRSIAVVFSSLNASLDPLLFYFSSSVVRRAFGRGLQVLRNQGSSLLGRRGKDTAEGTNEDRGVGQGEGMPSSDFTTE

Usually EC50 stands for the midpoint of the concentration-response curve. A high value points to weaker potency. As for `Cc1nc(N2C[C@@H](C)O[C@H](C)C2)c2[nH]c(N)c(S(=O)(=O)c3ccccc3F)c2n1` [Example 203, 4-[(2R,6R)-2,6-dimethylmorpholin-4-yl]-7-(2-fluorobenzenesulfonyl)-2-methyl-5H-pyrrolo[3,2-d]pyrimidin-6-amine], the midpoint of the response, the EC50, lay at 11 nM.
For `CCNc1ncnc2c(S(=O)(=O)c3ccccc3)c(N)[nH]c12` [Example 65, 7-(benzenesulfonyl)-4-N-ethyl-5H-pyrrolo[3,2-d]pyrimidine-4,6-diamine] the value was 6820 nM; for `Cc1nc(N2CCO[C@@H](C(F)(F)F)C2)c2[nH]c(N)c(S(=O)(=O)c3ccc(Cl)cc3F)c2n1` [Example 297, 7-(4-chloro-2-fluorobenzenesulfonyl)-2-methyl-4-[(2R)-2-(trifluoromethyl)morpholin-4-yl]-5H-pyrrolo[3,2-d]pyrimidin-6-amine], 2 nM.
In the case of `Cc1nc(N2CCO[C@H](C)[C@@H]2C)c2[nH]c(N)c(S(=O)(=O)c3ccccc3F)c2n1` (racemic) [Example 275, 4-[(RS,SR)-2,3-dimethylmorpholin-4-yl]-7-(2-fluorobenzenesulfonyl)-2-methyl-5H-pyrrolo[3,2-d]pyrimidin-6-amine], the EC50 was 5 nM.
`COc1ccc(S(=O)(=O)c2c(N)[nH]c3c(N4CCCC(C)C4)ncnc23)cc1` (centres unmarked) [Example 106, 7-(4-methoxybenzenesulfonyl)-4-(3-methylpiperidin-1-yl)-5H-pyrrolo[3,2-d]pyrimidin-6-amine] yielded an EC50 of 15 nM.
The compound `Cc1nc(N2CCOC(C)(C)C2)c2[nH]c(N)c(S(=O)(=O)c3c(F)cccc3F)c2n1` [Example 287, 7-(2,6-difluorobenzenesulfonyl)-4-(2,2-dimethylmorpholin-4-yl)-2-methyl-5H-pyrrolo[3,2-d]pyrimidin-6-amine] gave an EC50 of 9 nM.
As to `C=C(C)c1nc(C)nc2c(S(=O)(=O)c3ccccc3F)c(N)[nH]c12` [Example 224, 7-(2-fluorobenzenesulfonyl)-2-methyl-4-(prop-1-en-2-yl)-5H-pyrrolo[3,2-d]pyrimidin-6-amine], a half-maximal effect (EC50) was put at 85 nM.
Then `C=C(C)c1ncnc2c(S(=O)(=O)c3ccc(OC)cc3)c(N)[nH]c12` [Example 71, 7-(4-methoxybenzenesulfonyl)-4-(prop-1-en-2-yl)-5H-pyrrolo[3,2-d]pyrimidin-6-amine], with 553 nM; and `COc1ccc(S(=O)(=O)c2c(N)[nH]c3c(N4CCOC(C)(C)C4)nc(C)nc23)cc1` [Example 204, 4-(2,2-dimethylmorpholin-4-yl)-7-(4-methoxybenzenesulfonyl)-2-methyl-5H-pyrrolo[3,2-d]pyrimidin-6-amine], with 15 nM; and `Cc1nc(N2CCO[C@H](C(F)(F)F)C2)c2[nH]c(N)c(S(=O)(=O)c3ccc(Cl)cc3F)c2n1` [Example 284, 7-(4-chloro-2-fluorobenzenesulfonyl)-2-methyl-4-[(2S)-2-(trifluoromethyl)morpholin-4-yl]-5H-pyrrolo[3,2-d]pyrimidin-6-amine], with 2 nM.
Then `C[C@@H](Oc1ncnc2c(S(=O)(=O)c3ccccc3)c(N)[nH]c12)c1ccccn1` [Example 162, 7-(benzenesulfonyl)-4-[(1R)-1-(pyridin-2-yl)ethoxy]-5H-pyrrolo[3,2-d]pyrimidin-6-amine], with 141 nM; and `Cc1nc(N2CCO[C@H](C)[C@H]2C)c2[nH]c(N)c(S(=O)(=O)c3ccccc3F)c2n1` [Example 276, 4-[(RR,SS)-2,3-dimethylmorpholin-4-yl]-7-(2-fluorobenzenesulfonyl)-2-methyl-5H-pyrrolo[3,2-d]pyrimidin-6-amine], with 16 nM; and `Nc1[nH]c2c(C3=CCCCC3)nccc2c1S(=O)(=O)c1ccccc1` [Example 18, 3-(benzenesulfonyl)-7-(cyclohex-1-en-1-yl)-1H-pyrrolo[2,3-c]pyridin-2-amine], with 528 nM.
With `Cc1ccc(S(=O)(=O)c2c(N)[nH]c3c(C4=CCCCC4)ncnc23)cc1` [Example 42, 4-(cyclohex-1-en-1-yl)-7-[(4-methylbenzene)sulfonyl]-5H-pyrrolo[3,2-d]pyrimidin-6-amine], the EC50 is 32 nM.
`Cc1nc(N2CCC(F)(F)CC2)c2[nH]c(N)c(S(=O)(=O)c3cccc(F)c3)c2n1` [Example 181, 4-(4,4-difluoropiperidin-1-yl)-7-(3-fluorobenzenesulfonyl)-2-methyl-5H-pyrrolo[3,2-d]pyrimidin-6-amine] displayed an EC50 of 82 nM.
`CCC1(CC)CN(c2ncnc3c(S(=O)(=O)c4ccccc4)c(N)[nH]c23)CCO1` [Example 103, 7-(benzenesulfonyl)-4-(2,2-diethylmorpholin-4-yl)-5H-pyrrolo[3,2-d]pyrimidin-6-amine] had an EC50 of 36 nM.
Then `CC(Oc1ncnc2c(S(=O)(=O)c3ccccc3)c(N)[nH]c12)C1CC1` (centres unmarked) [Example 170, 7-(benzenesulfonyl)-4-(1-cyclopropylethoxy)-5H-pyrrolo[3,2-d]pyrimidin-6-amine], with 40 nM.
Consider `Nc1[nH]c2c(-c3cccnc3)ncnc2c1S(=O)(=O)c1ccccc1` [Example 67, 7-(benzenesulfonyl)-4-(pyridin-3-yl)-5H-pyrrolo[3,2-d]pyrimidin-6-amine], for which the EC50 came to 3170 nM.
Consider `CC1CCCCN1c1ncnc2c(S(=O)(=O)c3ccccc3)c(N)[nH]c12` (centres unmarked) [Example 69, 7-(benzenesulfonyl)-4-(2-methylpiperidin-1-yl)-5H-pyrrolo[3,2-d]pyrimidin-6-amine], for which the EC50 amounted to 49 nM.
Compound `Nc1[nH]c2c(O[C@H]3CCOC3)ncnc2c1S(=O)(=O)c1ccccc1` [Example 158, 7-(benzenesulfonyl)-4-[(3S)-oxolan-3-yloxy]-5H-pyrrolo[3,2-d]pyrimidin-6-amine] had an EC50 of 3070 nM.
For the compound `Cc1nc(OCC2CC2(C)C)c2[nH]c(N)c(S(=O)(=O)c3ccccc3)c2n1` (centres unmarked) [Example 245, 7-(benzenesulfonyl)-4-[(2,2-dimethylcyclopropyl)methoxy]-2-methyl-5H-pyrrolo[3,2-d]pyrimidin-6-amine], the EC50 amounted to 57 nM.
As for `Nc1[nH]c2c(C3CCCCC3)cncc2c1S(=O)(=O)c1ccccc1` [Example 32, 3-(benzenesulfonyl)-7-cyclohexyl-1H-pyrrolo[3,2-c]pyridin-2-amine], the EC50 amounted to 37 nM.
On to `Cc1nc(N2CCOC(C)C2)c2[nH]c(N)c(S(=O)(=O)c3cccc(F)c3)c2n1` (centres unmarked) [Example 180, 7-(3-fluorobenzenesulfonyl)-2-methyl-4-(2-methylmorpholin-4-yl)-5H-pyrrolo[3,2-d]pyrimidin-6-amine], for which a half-maximal response (EC50) required 43 nM.
Compound `CCC(CC)Oc1nc(C)nc2c(S(=O)(=O)c3ccccc3)c(N)[nH]c12` [Example 248, 7-(benzenesulfonyl)-2-methyl-4-(pentan-3-yloxy)-5H-pyrrolo[3,2-d]pyrimidin-6-amine] came in with a concentration for a half-maximal effect (EC50) of 22 nM.
Turning to `CN(c1ncnc2c(S(=O)(=O)c3ccccc3)c(N)[nH]c12)C1CCOCC1` [Example 115, 7-(benzenesulfonyl)-4-N-methyl-4-N-(oxan-4-yl)-5H-pyrrolo[3,2-d]pyrimidine-4,6-diamine], the EC50 came to 798 nM.
For `CC1CN(c2ncnc3c(S(=O)(=O)c4ccccc4)c(N)[nH]c23)CCS1` (centres unmarked) [Example 195, 7-(benzenesulfonyl)-4-(2-methylthiomorpholin-4-yl)-5H-pyrrolo[3,2-d]pyrimidin-6-amine] the value was 8 nM; for `Cc1nc(N2CCOC(C)C2)c2[nH]c(N)c(S(=O)(=O)c3cccc(F)c3F)c2n1` (centres unmarked) [Example 182, 7-(2,3-difluorobenzenesulfonyl)-2-methyl-4-(2-methylmorpholin-4-yl)-5H-pyrrolo[3,2-d]pyrimidin-6-amine], 6 nM; for `Cc1nc(N2CCOC(CF)C2)c2[nH]c(N)c(S(=O)(=O)c3ccccc3F)c2n1` (centres unmarked) [Example 266, 7-(2-fluorobenzenesulfonyl)-4-[2-(fluoromethyl)morpholin-4-yl]-2-methyl-5H-pyrrolo[3,2-d]pyrimidin-6-amine], 3 nM.
As to `Cc1nc(N2C[C@@H](C)O[C@@H](C)C2)c2[nH]c(N)c(S(=O)(=O)c3ccccc3)c2n1` [Example 138, 7-(benzenesulfonyl)-4-[(2R,6S)-2,6-dimethylmorpholin-4-yl]-2-methyl-5H-pyrrolo[3,2-d]pyrimidin-6-amine], the EC50 was found to be 6 nM.
As for `COc1nc(N2CCOC(C)C2)c2[nH]c(N)c(S(=O)(=O)c3ccccc3F)c2n1` (centres unmarked) [Example 271, 7-(2-fluorobenzenesulfonyl)-2-methoxy-4-(2-methylmorpholin-4-yl)-5H-pyrrolo[3,2-d]pyrimidin-6-amine], the midpoint of the response, the EC50, lay at 8 nM.
Compound `Cc1nc(N2C[C@@H](C)O[C@@H](C)C2)c2[nH]c(N)c(S(=O)(=O)c3cccc(F)c3)c2n1` [Example 179, 4-[(2R,6S)-2,6-dimethylmorpholin-4-yl]-7-(3-fluorobenzenesulfonyl)-2-methyl-5H-pyrrolo[3,2-d]pyrimidin-6-amine] gave an EC50 of 18 nM.
As to `Nc1[nH]c2c(N3CCC(F)(F)CC3)ncnc2c1S(=O)(=O)c1ccccc1F` [Example 74, 4-(4,4-difluoropiperidin-1-yl)-7-(2-fluorobenzenesulfonyl)-5H-pyrrolo[3,2-d]pyrimidin-6-amine], the concentration for a half-maximal effect (EC50) turned out to be 9 nM.
